Measured values: patent US20190209548A1, “LINKED DIARYL COMPOUNDS WITH ANTICANCER PROPERTIES AND METHODS OF USING THE SAME” (University of Maryland, College Park, priority 2014, published 2019)
Read-outs that look alike come from different tables or passages of the source.

Columns and labels:
SAOS-2 = conditions: read-out: IC50 of cisplatin; cited from earlier work
MCF-7/DX = conditions: read-out: IC50 of cisplatin; cited from earlier work
A431 = conditions: read-out: IC50 of cisplatin; cited from earlier work
Calu-3 = conditions: read-out: IC50 of cisplatin; cited from earlier work
PC3 = conditions: read-out: IC50 of cisplatin; cited from earlier work
RD = conditions: read-out: IC50 of cisplatin; cited from earlier work
OVCAR-3 = assay: WST-1 IC50 determination, OVCAR-3; assay type: cell-based, human
Protocol: (§1) Cell lines and culturing. The following human cell lines were purchased from ATCC (ATCC, Manassas, Va.): prostate cancer cells (PC-3), triple negative breast cancer cells (MDA-MB-231), ovarian cancer cells (OVCAR-3), normal bone marrow (NBM) and normal fibroblast cells (MCR5A). MDA-MB-231 cells were grown at 37° C. with 5% CO2 atmosphere with DMEM (Life technologies, Carlsbad, Calif.) supplemented with heat-inactivated 10% (V/V) fetal bovine serum. OVCAR-3 and PC-3 cells were grown at 37° C. with 5% CO2 atmosphere with RPMI (Life technologies, Carlsbad, Calif.) supplemented with heat-inactivated 10% (V/V) fetal bovine serum. Cell lines were grown and maintained according to ATCC recommendations.
(§2) IC50 determination. Cell lines were seeded into 96-well plates the afternoon prior to treatment. Cell seeding number was determined by growing cells in log phase growth during drug treatment. Approximately 18 hours later, compounds were semi-serially diluted in dimethyl sulfoxide (DMSO) and then growth medium, and added to cells. Plates were incubated for 72 hours prior to addition of WST-1 (Promega, Madison Wis.). Plates were read after 4 additional hours of incubation at 37° C. using a Bio-Tek Synergy HT plate reader (Bio-Tek, Winooski, Vt.). Data was analyzed, graphed and IC50s generated using GraphPad Prism Software (Graphpad, La Jolla, Calif.).
(§3) IC50 determination: For the determination of IC50 for the azolamide class, the same protocol as described previously was followed.

MDA-MB-231 = assay: WST-1 IC50 determination, MDA-MB-231; assay type: cell-based, human
Protocol: as §1, §2, §3

A375 = conditions: read-out: IC50 of cisplatin; cited from earlier work
SW872 = conditions: read-out: IC50 of cisplatin; cited from earlier work
CAPAN-1 = conditions: read-out: IC50 of cisplatin; cited from earlier work
HT1080 = conditions: read-out: IC50 of cisplatin; cited from earlier work
PC-3 = assay: WST-1 IC50 determination, PC-3; assay type: cell-based, human
Protocol: as §1, §2, §3

HT29 = conditions: read-out: IC50 of cisplatin; cited from earlier work
CFPAC-1 = conditions: read-out: IC50 of cisplatin; cited from earlier work
SH-SY5Y = conditions: read-out: IC50 of cisplatin; cited from earlier work
U2-OS = conditions: read-out: IC50 of cisplatin; cited from earlier work
PNT1 = conditions: read-out: IC50 of cisplatin; cited from earlier work
PANC-1 = conditions: read-out: IC50 of cisplatin; cited from earlier work
HOS = conditions: read-out: IC50 of cisplatin; cited from earlier work
Hep2 = conditions: read-out: IC50 of cisplatin; cited from earlier work
THP1 = assay: WST-1 IC50 determination, THP1; assay type: cell-based; conditions: Homo sapiens, THP-1; THP1, 72 h; read-out: IC50 for killing Leukemia cell line
Protocol: as §2, §3

Tolerability studies = assay type: in vivo; conditions: mice, 10 mg/Kg
MOLM14 = assay: WST-1 IC50 determination, MOLM14; assay type: cell-based; conditions: Homo sapiens
Protocol: as §2, §3

[1] = Human liver microsome stability; assay type: in vitro ADME; conditions: human, liver microsomes
Description: An established method to determine the pharmacokinetic clearance of a compound in humans is to measure the degradation of the compound in the presence of human liver microsomes. The following is the half-lives of the four compounds in human liver microsomes: […]

NBM = assay: WST-1 IC50 determination, normal bone marrow; assay type: cell-based, human
Protocol: as §1, §2, §3

U87 = assay: IC50 determination, U87; assay type: cell-based; conditions: Homo sapiens, U-87 MG; Glioblastoma; read-out: Anticancer activities, U87
Protocol: as §2, §3

MV4-11 = assay: IC50 determination, MV4-11; assay type: cell-based; conditions: Homo sapiens, Acute monocyctic leukemia, read-out: Anticancer activities, MV4-11
Protocol: as §2, §3

[2] = tested on: triple-negative breast cancer cells; assay: Cancer cell migration; assay type: cell-based; conditions: increasing concentration
Description: FIG. 36. […] Red=negative control—no FCS in bottom well. Green=DMSO. Blue and pink=increasing concentration of 630-1.

c-kit2 = assay: FRET melting assay, c-kit2; assay type: binding; conditions: 0.2 μM dual-labeled DNA and 0.2 μM TMPyP4
duplex = assay: FRET melting assay, duplex DNA; assay type: binding; conditions: 0.2 μM dual-labeled DNA and 0.2 μM TMPyP4
c-MYC Pu27 = assay: PCR stop assay, Pu27 template; assay type: biochemical; conditions: 10 μM compound
Protocol: (§4) PCR Stop Assay. This assay was performed by modifying a previously published protocol.
(§5) To the PCR reaction mixture (25 μL), 1×PCR buffer (New England Biolabs), 5 μM Pu27 and Pu27rev oligomers, various concentrations of ligands (DMZ, TMPyP4, DMZ1, DMZ9 and DMZ13) were added and incubated at 4° C. for 6 h. After that, 1 mM dNTPs, 5 units of Taq DNA polymerase (New England Biolabs) were added and PCR reactions were performed in a thermocycler, with the following conditions: 94° C. for 3 min, followed by 20 repeated cycles each having 94° C. for 30 s, 58° C. for 30 s, and 72° C. for 30 s. After PCR, amplified products were analyzed on 12% polyacrylamide gel with 1×TBE and SYBR Gold stained. This assay was also performed under the same conditions with Pu27-13,14 and Pu27rev.

F21T = assay: FRET melting assay, F21T; assay type: binding; conditions: 0.2 μM dual-labeled DNA and 0.2 μM TMPyP4
G-quadruplexes = conditions: binding of classic G-tetrad-motif ligand to G-quadruplexes; cited from earlier work
k-RAS21R = assay: FRET melting assay, k-RAS21R; assay type: binding; conditions: 0.2 μM dual-labeled DNA and 0.2 μM TMPyP4
Pu27-13,14 = assay: PCR stop assay, mutated control template; assay type: biochemical; conditions: 10 μM compound
Protocol: as §4, §5

c-MYC = assay: FRET melting assay, c-MYC; assay type: binding; conditions: 0.2 μM dual-labeled DNA and 0.2 μM TMPyP4
MCR5A = assay: WST-1 IC50 determination, normal fibroblast; assay type: cell-based, human; conditions: normal fibroblast cell, 72 hours, read-out: IC50 ± SD, MCR5A
Protocol: as §1, §2

[3] = tested on: G-quadruplex DNAs (c-kit1, VEGF, bcl-2 2345 and TBA); assay: UV-visible titration with G-quadruplex DNA; assay type: binding; conditions: UV-visible titration conditions
Protocol: UV titration studies of DNA with the triazene ligands, DMZ and Triazene-1. The molar extinction coefficients at 260 nm for 22-mer c-kit1, 18-mer VEGF, 23-mer bcl-2 2345, 15-mer TBA and 20-mer 8 bp AT are as follows 226,700 M^−1 cm^−1, 169,800 M^−1 cm^−1, 227,300 M^−1 cm^−1, 143,300 M^−1 cm^1 and 205,500 M^−1 cm^−1, respectively. The concentration of ligands used in this study was 10 μM and the DNA concentrations were 0, 0.25, 1.5, 3, 5, 6, 7, 8, 9, 10, 20, 30, 40, 50, 100, and 15 μM. The buffer contained 250 mM KCl, 50 mM Tris-HCl (at pH 7.5). The following quadruplex DNA were tested: c-kit1, VEGF, bcl-2 2345, and TBA. Duplex DNA (8 bp AT) was also tested. The sample was first heated up to 95° C. for 5 min without the ligand and then cooled down to room temperature in 15 min. The ligand was then added and the mixture was incubated at 4° C. for ˜12 h before recording the data. In case of Triazene-1 and Triazene-2, the sample mixture contained 1% DMSO.

[4] = 72 hours, WST-1, read-out: Anticancer activity IC50 ± SD, OVCAR-3
[5] = 72 hours, WST-1, read-out: Anticancer activity IC50 ± SD, MDA-MB-231
[6] = 72 hours, WST-1, read-out: Anticancer activity IC50 ± SD, PC-3
[7] = Homo sapiens, Bone marrow cell, Normal bone marrow cells, read-out: Anticancer activities, NBM
[8] = Homo sapiens, MDA-MB-231, triple negative breast cancer, read-out: Anticancer activities, TNBC 231
[9] = Homo sapiens, PC-3, prostate cancer, read-out: Anticancer activities, PC3

SMILES: N.N.[Cl][Pt][Cl] [Cisplatin]
- IC50 (SAOS-2): 11 µM
- IC50 (MCF-7/DX): 7 µM
- IC50 (A431): 20 µM
- IC50 (Calu-3): > 50 µM
- IC50 (PC3): 12 µM
- IC50 (RD): 6 µM
- IC50 (OVCAR-3; [4]): 4.1 ± 1.8 µM
- IC50 (MDA-MB-231; [5]): 11.7 ± 1 µM
- IC50 (MDA-MB-231; triple negative breast cancer, read-out: Anticancer activities, TNBC 231): 11.7 µM
- IC50 (A375): 6 µM
- IC50 (SW872): 5 µM
- IC50 (CAPAN-1): > 50 µM
- IC50 (HT1080): 9 µM
- IC50 (PC-3; [6]): 10.5 ± 1.3 µM
- IC50 (PC-3; prostate cancer, read-out: Anticancer activities, PC3): 10.5 µM
- IC50 (HT29): 22 µM
- IC50 (CFPAC-1): 38 µM
- IC50 (SH-SY5Y): 2 µM
- IC50 (U2-OS): 20 µM
- IC50 (PNT1): 5 µM
- IC50 (PANC-1): 15 µM
- IC50 (HOS): 10 µM
- IC50 (Hep2): 7 µM

SMILES: N=C(N)c1ccc(/N=N/c2c(N)ncc3ccccc23)cc1 [HSW308-4]
- IC50 (THP1): 2.6 µM
- tolerability (Tolerability studies): can be tolerated
- IC50 (MOLM14; MOLM-14, MOLM14, 72 h, read-out: IC50 for killing Leukemia cell line): 0.98 µM
- IC50 (MOLM14; MOLM-14, leukemia, read-out: Anticancer activities, Molm14): 0.98 µM
- half-life ([1]; read-out: NADPH-dependent T½): 3.27 h
- half-life ([1]; read-out: NADPH-independent T½): > 4 h
- IC50 (NBM; [7]): 8.7 µM
- IC50 (OVCAR-3; Homo sapiens, OVCAR-3, read-out: IC50 for killing ovarian cancer cell line (OVCAR-3)): 4.2 µM
- IC50 (MDA-MB-231; Homo sapiens, MDA-MB-231, read-out: IC50 for killing triple negative breast cancer cell line (231)): 1.9 µM
- IC50 (MDA-MB-231; [8]): 1.85 µM
- IC50 (PC-3; [9]): 1.3 µM
- IC50 (PC-3; Homo sapiens, PC-3, read-out: IC50 for killing prostate cancer cell line (PC-3)): 1 µM
- IC50 (U87): 1.32 µM
- IC50 (MV4-11): 0.92 µM

SMILES: N=C(N)c1ccc(/N=N/c2c(N)ncc3ccc(Br)cc23)cc1 [HSW630-1]
- tolerability (Tolerability studies): can be tolerated
- IC50 (MOLM14; MOLM-14, read-out: Anticancer activities, Molm14): 0.14 µM
- half-life ([1]; read-out: NADPH-dependent T½): 3.18 h
- half-life ([1]; read-out: NADPH-independent T½): 2.07 h
- IC50 (NBM; [7]): 5.1 µM
- IC50 (MDA-MB-231; [8]): 0.48 to 0.92 µM
- migration of cancer cells [2]: prevents cancer cells from migrating
- migration of cancer cells ([2]; listed as 630-1): can inhibit migration
- IC50 (PC-3; [9]): 0.59 µM
- IC50 (U87): 0.56 µM
- IC50 (MV4-11): 0.15 µM

SMILES: C[n+]1ccc(-c2c3nc(c(-c4cc[n+](C)cc4)c4ccc([nH]4)c(-c4cc[n+](C)cc4)c4ccc([nH]4)c(-c4cc[n+](C)cc4)c4nc2C=C4)C=C3)cc1 [TMPyP4, reference compound]
- ΔTm c-kit2 (c-kit2): 3.46 ± 1.03 °C
- ΔTm duplex (duplex): 1.14 ± 0.52 °C
- polymerization/extension of oligomers Pu27 and Pu27rev (c-MYC Pu27): showed inhibition
- ΔTm F21T (F21T): 4.01 ± 0.26 °C
- Ka (G-quadruplexes): ≈ 5×10^6 M^−1
- IC50 (NBM; normal bone marrow, 72 hours, WST-1, read-out: IC50 ± SD, NBM): 16.8 µM
- IC50 (OVCAR-3; [4]): 14.6 ± 5.7 µM
- ΔTm k-RAS21R (k-RAS21R): 34.71 ± 0.93 °C
- IC50 (MDA-MB-231; [5]): 14.3 ± 4 µM
- PCR product with non-G-quadruplex template (Pu27-13,14): no PCR product was observed
- IC50 (PC-3; [6]): 14 ± 5.4 µM
- ΔTm c-MYC (c-MYC): 23.75 ± 0.52 °C
- IC50 (MCR5A): 15.2 ± 6.6 µM

SMILES: c1ccc(N=NNc2ccccc2)cc1 [Triazene-2]
- self-aggregation [3]: exhibited self-aggregation
